26 molecules from paper PMC6984732, “Thymidine phosphorylase and prostrate cancer cell proliferation inhibitory activities of synthetic 4-hydroxybenzohydrazides: In vitro, kinetic, and in silico studies” (PLoS ONE, 2020) can be followed below.

Where two headings read alike, the source gives them in different places.

Test [1] deals with T1, thymidine phosphorylase (TP) (Escherichia coli, UniProt P07650).
T1 construct: purchased Sigma Aldrich, USA; host or cells: E. coli
As to the kind of experiment: Thymidine phosphorylase inhibition assay (spectrophotometric, 290 nm). The class given is biochemical, E. coli. Conditions: for inhibition: read-out: Percent Inhibition of thymidine phosphorylase, 10 μL of test compound (0.5 mM in dimethylsulfoxide) per well; for inhibition / inhibition at 500 µM (stock): <50% regarded inactive; for IC50: recombinant TP expressed in E. coli, substrate thymidine, pH 7.0, 30°C, N.A. = not active, read-out: IC50 (μM ± SEM), thymidine phosphorylase inhibition; for inhibition at 500 µM (stock): 10 μL of test compound (0.5 mM in dimethylsulfoxide) per well, read-out: Percent Inhibition of thymidine phosphorylase. The procedure:
Since human TP is not commercially available, we used commercially available recombinant TP (expressed in E. coli) enzyme. Primary sequence of TP is mostly conserved throughout the evolution and mammalian TP share 39% sequence similarity with TP of E. coli. The mammalian enzyme also shares 65–70% similarity with the active site residues of E. coli TP enzyme.
Assay for TP inhibition was performed spectrophotometrically, following the method of Bera et al. with some modifications. Enzyme TP catalyzed the reversible phosphorolysis of thymidine to thymine and 2-deoxyribose-1-phosphate. Reaction mixture contained 150 μL of potassium phosphate buffer (pH 7.0, 50 mM), 20 μL of enzyme (0.058 U/well), and 10 μL of test compound (0.5 mM in dimethylsulfoxide). The reaction mixture was incubated for 10 min at 30°C. 20 μL of substrate (1.5 mM) was then added and change in absorbance was recorded after every minute for a total time period of 10 minutes at 290 nm in ELISA plate reader (Spectra Max-340, Molecular Devices, CA, USA).
We have used the 96-well UV-plates, purchased from Corning (Catalogue No. COSTAR 3635, Lot No. 00912050). […] We then added the substrate (thymidine), and recorded the final readings.

Test [2] deals with prostate cancer (PC3) cells. As to the kind of experiment: MTT anti-proliferative assay, PC3 cells. As to conditions: Homo sapiens, PC-3, 48 h incubation, prostate cancer cell line, read-out: IC50 ± Standard Deviation, PC3 Cell Line. In kind it is cell-based. The procedure: (§1) Anti-proliferative activity of active compounds was evaluated by using the standard MTT (3-[4,5-dimethylthiazole-2-yl]-2,5-diphenyl-tetrazolium bromide) colorimetric assay in 96-well plate.
(§2) It is a colorimetric assay that measures the reduction of MTT by mitochondrial enzyme i.e. succinate dehydrogenase. The MTT enters into the mitochondria of cell, where it is reduced to an insoluble formazan salt. As reduction of MTT can only occur in metabolically active cells, the level of activity is actually a measure of the viability of the cells.
(§3) Mouse fibroblast normal cell line 3T3, and prostate cancer line (PC3) were cultured separately in DMEM, supplemented with 5% of FBS, 100 IU/mL of penicillin and 100 μg/mL of streptomycin, and kept at 37°C in 5% CO2 incubator. For the preparation of cell culture, 100 μL/well of cell solution (5 x 10^4 cells/mL) was added into 96-well plate. The plate was incubated for overnight, and fresh medium was added after the removal of old medium. The test compounds were also added in different concentrations into the plate, and again incubated for 48 h. After the completion of this incubation period, 200 μL MTT (0.5 mg/mL) was added, and plate was again incubated for 4 h, after this final incubation, 100 μL of DMSO was added to each well. The level of MTT reduction to formazan was evaluated by change in absorbance at 540 nm for 3T3, and 570 nm for PC3 using a micro-plate reader (Spectra Max plus, Molecular Devices, CA, USA).
On the technique in general: Formazan colour is commonly taken as a measure of viable cells.

The test system of test [3] is mouse fibroblast (3T3) cells. Kind of test: MTT anti-proliferative (cytotoxicity) assay, 3T3 cells. In kind it is cell-based. Conditions: mouse fibroblast normal cell line, read-out: IC50 ± Standard Deviation, 3T3 Cell Line. The procedure:
as §1, §2, §3

Test [4] addresses T1, thymidine phosphorylase (TP). As to the kind of experiment: Kinetic studies on thymidine phosphorylase (Lineweaver-Burk, secondary re-plot, Dixon plot). In kind it is biochemical, E. coli. Conditions: thymidine as variable substrate; for Inhibition Type: from Lineweaver-Burk plot. The procedure: Kinetic studies were carried out to identify the mechanism of inhibition by these compounds. Inhibitor could bind with the enzyme in multiple ways, such as in competitive, non-competitive, mixed or uncompetitive way. In kinetic assay, the enzyme (0.058 U/200 μL) was incubated with different concentrations of inhibitor for 10 min at 30°C. The reaction was then initiated by adding different concentrations (0.1875–1.5 mM) of substrate (thymidine), and the resulting degradation of thymidine was measured continuously at 290 nm for 10 min on ELISA plate reader. Every experiment was run in triplicate.
Lineweaver-Burk plot was plotted to determine the type of inhibition. This was accomplished by plotting the reciprocal of the rate of reaction against the reciprocal of the substrate concentration. Ki values were determined by secondary re-plot of Lineweaver-Burk plot, and reconfirmed by Dixon plot.

T1 sequence (P07650 whole entry): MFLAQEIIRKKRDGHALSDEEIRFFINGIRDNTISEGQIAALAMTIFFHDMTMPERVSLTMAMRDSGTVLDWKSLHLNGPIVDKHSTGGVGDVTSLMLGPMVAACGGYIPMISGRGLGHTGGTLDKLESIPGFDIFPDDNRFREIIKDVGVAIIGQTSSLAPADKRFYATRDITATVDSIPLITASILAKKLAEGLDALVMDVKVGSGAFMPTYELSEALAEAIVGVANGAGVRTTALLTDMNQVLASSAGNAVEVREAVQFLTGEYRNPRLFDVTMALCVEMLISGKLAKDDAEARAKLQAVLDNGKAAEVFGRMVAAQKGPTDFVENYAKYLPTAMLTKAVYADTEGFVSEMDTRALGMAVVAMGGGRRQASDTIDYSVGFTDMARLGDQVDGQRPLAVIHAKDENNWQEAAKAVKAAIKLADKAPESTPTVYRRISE

As a reminder, the inhibition is the drop in the measured response relative to a control, in per cent. For orientation: IC50 means the point on the concentration scale where inhibition reaches its midpoint. On to `O=C(N/N=C/c1cccc(O)c1O)c1ccc(O)cc1` [Compound 2, N'-[(E)-(2^′,3^′-Dihydroxylphenyl)methylidene]-4-hydroxylbenzohydrazide], for which the inhibition in test [1] is 99.9%. The half-inhibitory concentration (IC50) in test [2] came out at 7.6 ± 0.4 µM; in test [3] (NIH3T3, 48 h incubation) it was 23 ± 1 µM.
Consider `COc1cccc(/C=N/NC(=O)c2ccc(O)cc2)c1O` [Compound 19, 4-Hydroxyl-N'-[(E)-(2^′-hydroxyl-3^′-methoxyphenyl)methylidene]benzohydrazide], for which the inhibition in test [1] is 86.9%. For the same molecule, the IC50 was 181.5 ± 1.6 µM in test [1]; 9.6 ± 0.3 µM in test [2]; 23.6 ± 0.2 µM in test [3] (NIH3T3, 48 h incubation).
Consider `O=C(N/N=C/c1cc(O)c(O)cc1O)c1ccc(O)cc1` [Compound 7, 4-Hydroxyl-N'-[(E)-(2^′,4^′,5^′-trihydroxylphenyl)methylidene]benzohydrazide], for which the inhibition in test [1] is 99%. Further, the 50% inhibitory concentration (IC50) in test [2] was greater than 30 µM; in test [3] (NIH3T3, 48 h incubation) it was 3.8 ± 0.4 µM.
In the same order, the values of `O=C(N/N=C/c1ccc(O)cc1)c1ccc(O)cc1` [Compound 8, 4-Hydroxyl-N'-[(E)-(4^′-hydroxylphenyl)methylidene]benzohydrazide] are 99%, greater than 30 µM and greater than 30 µM.
For `COc1ccc(/C=N/NC(=O)c2ccc(O)cc2)cc1` [Compound 10, 4-Hydroxyl-N'-{(E)-[4^′-(methoxy)phenyl]methylidene}benzohydrazide] the same measures were 99.8%, greater than 30 µM and greater than 30 µM.
For `O=C(N/N=C/c1ccccc1O)c1ccc(O)cc1` [Compound 1, 4-Hydroxyl-N'-[(E)-(2^′-hydroxylphenyl)methylidene]benzohydrazide] the same measures were 99.6%, 7.5 ± 0.4 µM and 13.1 ± 0.3 µM.
In general, Ki refers to a dissociation constant, usually derived from enzyme kinetics or from competition with a known ligand. On to `O=C(NN=Cc1cc(Br)cc(Br)c1O)c1ccc(O)cc1` [Compound 22, N'-[(E)-(3^′,5^′-Dibromo-2^′-hydroxylphenyl)methylidene]-4-hydroxylbenzohydrazide], for which, in test [1], the inhibition came out at 99.9%. Further, the concentration for half-maximal inhibition (IC50) in test [1] is 6.8 ± 0.7 µM; in test [2] it was 8.3 ± 0.9 µM; in test [3] (NIH3T3, 48 h incubation), 9.2 ± 0.1 µM. The “Inhibition Type” value in test [4] was “Non-competitive”. Further, the Ki in test [4] (secondary re-plot of Lineweaver-Burk plot, reconfirmed by Dixon plot, read-out: Ki (μM ± SEM)) was 1.75 ± 0.009 µM.
Regarding `O=C(N/N=C/c1c(O)cc(O)cc1O)c1ccc(O)cc1` [Compound 4, 4-Hydroxyl-N'-[(E)-(2^′,4^′,6^′-trihydroxylphenyl)methylidene]benzohydrazide], in test [1], the inhibition at 500 µM (stock) was 8%.
For `COc1ccccc1/C=N/NC(=O)c1ccc(O)cc1` [Compound 12, 4-Hydroxyl-N'-{(E)-[2^′-(methoxy)phenyl]methylidene}benzohydrazide], the inhibition in test [1] amounted to 99%. The IC50 was greater than 30 µM in test [2] and greater than 30 µM in test [3] (NIH3T3, 48 h incubation).
Consider `O=C(N/N=C/c1cccc(Cl)c1)c1ccc(O)cc1` [Compound 11, N'-[(E)-(3^′-Chlorophenyl)methylidene]-4-hydroxylbenzohydrazide], for which, in test [1], the inhibition was determined as 99%. Further, the IC50 in test [2] is greater than 30 µM; in test [3] (NIH3T3, 48 h incubation), greater than 30 µM.
Turning to `COc1ccc(/C=N/NC(=O)c2ccc(O)cc2)cc1OC` [Compound 13, N'-{(E)-[3^′,4^′-Bis(methoxy)phenyl]methylidene}-4-hydroxylbenzohydrazide], in test [1], the inhibition is 99%. In addition, the IC50 in test [2] was greater than 30 µM; in test [3] (NIH3T3, 48 h incubation) it was greater than 30 µM.
For the molecule `O=C(N/N=C/c1cc(Cl)ccc1O)c1ccc(O)cc1` [Compound 21, N'-[(E)-(5^′-Chloro-2^′-hydroxylphenyl)methylidene]-4-hydroxylbenzohydrazide], in test [1], the inhibition was 12.4%.
On to `O=C(N/N=C/c1ccc(O)c(O)c1O)c1ccc(O)cc1` [Compound 5, 4-Hydroxyl-N'-[(E)-(2^′,3^′,4^′-trihydroxylphenyl)methylidene]benzohydrazide], for which the inhibition at 500 µM (stock) in test [1] amounted to 26%.
With `Cc1ccccc1/C=N/NC(=O)c1ccc(O)cc1` [Compound 16, 4-Hydroxyl-N'-[(E)-(2^′-methylphenyl)methylidene]benzohydrazide], the inhibition in test [1] stood at 99%. Moreover, the concentration for half-maximal inhibition (IC50) in test [2] was greater than 30 µM; in test [3] (NIH3T3, 48 h incubation), greater than 30 µM.
As to `O=C(N/N=C/c1cccc(O)c1)c1ccc(O)cc1` [Compound 6, 4-Hydroxyl-N'-[(E)-(3^′-hydroxylphenyl)methylidene]benzohydrazide], in test [1], the inhibition stood at 99%. Further, the IC50 was greater than 30 µM in test [2] and greater than 30 µM in test [3] (NIH3T3, 48 h incubation).
With `O=C(N/N=C/c1ccc(Cl)cc1Cl)c1ccc(O)cc1` [Compound 15, N'-[(E)-(2^′,4^′-Dichlorophenyl)methylidene]-4-hydroxylbenzohydrazide], the inhibition at 500 µM (stock) in test [1] was determined as 20%.
Consider `O=c1[nH]c(=O)c2cc[nH]c2[nH]1` [7-Deazaxanthine, reference compound], for which, in test [1], the inhibition is 99%. The “Inhibition Type” value in test [4] is reported as “Non-competitive”.
For the molecule `COc1ccc(O)c(/C=N/NC(=O)c2ccc(O)cc2)c1` [Compound 23, 4-Hydroxyl-N'-{(E)-[2^′-hydroxyl-5^′-(methoxy)phenyl]methylidene}benzo-hydrazide], in test [1], the inhibition was 99.9%. Further, the IC50 was determined as 10.5 ± 0.5 µM in test [2] and 15.3 ± 0.9 µM in test [3] (NIH3T3, 48 h incubation).
For the molecule `C/C(=N\NC(=O)c1ccc(O)cc1)c1ccc(O)cc1O` [Compound 26, N'-[(E)-1-(2^′,4^′-Dihydroxylphenyl)ethylidene]-4-hydroxylbenzohydrazide], the inhibition in test [1] was 30%.
On to `COc1cccc2c1C(=O)c1c(O)c3c(c(O)c1C2=O)C[C@@](O)(C(=O)CO)C[C@@H]3O[C@H]1C[C@H](N)[C@H](O)[C@H](C)O1` [Doxorubicin, doxorubicin, reference compound], for which, in test [2], the half-inhibitory concentration (IC50) stood at 0.91 ± 0.1 µM.
With `C/C(=N\NC(=O)c1ccc(O)cc1)c1ccccc1O` [Compound 25, 4-Hydroxyl-N'-[(E)-1-(2^′-hydroxylphenyl)ethylidene]benzohydrazide], in test [1], the inhibition turned out to be 25%.
As for `C[C@@H]1C[C@@H]([C@H](O)CC2CC(=O)NC(=O)C2)C(=O)[C@@H](C)C1` [Cyclohexamide, cyclohexamide, reference compound], the IC50 in test [3] (48 h incubation) was 0.26 ± 0.1 µM.
Consider `N=C1CCCN1Cc1nc(O)nc(O)c1Cl` [tipiracil, reference compound], for which, in test [1], the inhibition was 99%.
`O=C(N/N=C/c1cc(Br)ccc1O)c1ccc(O)cc1` [Compound 20, N'-[(E)-(5^′-Bromo-2^′-hydroxylphenyl)methylidene]-4-hydroxylbenzohydrazide]: the inhibition at 500 µM (stock) in test [1] was 38.6%.
`C/C(=N\NC(=O)c1ccc(O)cc1)c1cc(O)ccc1O` [Compound 28, N'-[(E)-1-(2^′,5^′-Dihydroxylphenyl)ethylidene]-4-hydroxylbenzohydrazide]: the inhibition in test [1] was found to be 99.3%. For the same molecule, the concentration for half-maximal inhibition (IC50) in test [2] was greater than 30 µM; in test [3] (NIH3T3, 48 h incubation), 20.2 ± 0.9 µM.
For `CCOc1cccc(/C=N/NC(=O)c2ccc(O)cc2)c1O` [Compound 24, N'-{(E)-[3^′-Ethoxy-2^′-hydroxylphenyl]methylidene}-4-hydroxylbenzohydrazide], in test [1], the inhibition was 82.4%. In addition, the concentration for half-maximal inhibition (IC50) in test [2] amounted to 6.5 ± 0.2 µM; in test [3] (NIH3T3, 48 h incubation) it was 9.4 ± 0.3 µM.
